Laboratory results as given in patent US10662229B2, “Spider venom peptides and methods of use for modulating sodium channels” (priority 2016, dated 2020).
Entries after “also recorded” stand apart in the source; their conditions may differ.

How the values were obtained:
hNav1.8 [1] = target: T1, hNav1.8 (Homo sapiens, UniProt Q9Y5Y9); experiment: FLIPR membrane potential assay, hNav1.8; assay type: cell-based
T1 construct: host or cells: HEK293
How it was run: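 Cells plated 48 h before assay, then dye-loaded (red membrane potential dye, 1× in PSS, 30 min, 37° C), then agonist added and membrane potential tracked on FLIPR^TETRA for 300 s. HEK293 stable lines expressing each hNav subtype.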

hNav1.7 = target: T2, hNav1.7 (Homo sapiens, UniProt Q15858); experiment: Automated patch clamping (QPatch-16), hNav1.7; assay type: cell-based; conditions: for voltage dependence of activation, V50: control −25.1±0.5 mV
T2 construct: host or cells: HEK293
Procedure: (§1) HEK293 cells stably expressing hNav1.1-1.7 or CHO cells stably expressing hNav1.8 (as described in Example 3 above) were cultured in a T-175 flask in selection antibiotic-free media at 37° C. Cells were grown to 70-80% confluence and harvested using Detachin (Bio-Scientific, NSW, Australia) at 37° C. for 2 min. Dissociated cells were then resuspended in Ex-Cell ACF CHO Medium with HEPES (25 mM; Sigma-Aldrich Co.) and allowed to recover on the QStirrer for 30 min.
(§2) The extracellular solution contained in mM: NaCl 145, KCl 4, CaCl2 2, MgCl2 1, HEPES 10 and glucose 10. The pH was adjusted to 7.4 with NaOH and osmolarity was adjusted with sucrose to 305 mOsm. The intracellular solution contained in mM: CsF 140, ethylene glycol tetraacetic acid (EGTA)/CsOH 1/5, HEPES 10 and NaCl 10. The pH was adjusted to 7.3 with CsOH and osmolarity adjusted with sucrose to 320 mOsm.
Whole-cell patch-clamp experiments were performed on a QPatch-16 automated electrophysiology platform (Sophion Bioscience, Ballerup, Denmark) using 16-channel planar patch chip plates (QPlates; Sophion Bioscience) with a patch hole diameter of 1 μm and resistance of 2±0.02 MΩ with the following parameters: positioning pressure −60 mbar, minimum seal resistance 0.1 GΩ, holding potential −100 mV, holding pressure −20 mbar.
Whole-cell currents were filtered at 5 kHz and acquired at 25 kHz.
(§3) The current-voltage (IV) curve was constructed with a holding potential of −80 mV followed by a pre-pulse of −100 mV for 50 ms and a series of 50 ms step pulses that ranged from −80 to 50 mV in 5 mV increments before returning to a holding potential of −80 mV. Voltage-dependence of activation was determined as normalized Nav conductance (GNa) using: GNa=INa/(Vmemb−Vrev), where Vmemb is the membrane potential and Vrev is the reversal potential for each cell. The voltage of activation data was fitted to a Boltzmann sigmoidal curve using GraphPad Prism, version 6.0.

hNav1.5 = target: T3, hNav1.5 (Homo sapiens, UniProt Q14524); experiment: Automated patch clamping (QPatch-16), hNav1.5; assay type: cell-based
T3 construct: host or cells: HEK293
Procedure: as §1
as §2, with “320 mOsm. […]” for “320 mOsm.”
as §3, with “The voltage of activation data was fitted to a Boltzmann sigmoidal curve using GraphPad Prism, version 6.0.” left out

hNav1.2 = target: T4, hNav1.2 (Homo sapiens, UniProt Q99250); experiment: Automated patch clamping (QPatch-16), hNav1.2; assay type: cell-based
T4 construct: host or cells: HEK293
Procedure: as §1
as §2, with “320 mOsm. […]” for “320 mOsm.”
as §3, with “The voltage of activation data was fitted to a Boltzmann sigmoidal curve using GraphPad Prism, version 6.0.” left out

[2] = tested on: OD1-induced spontaneous pain behaviours in mice; experiment: OD1 model of spontaneous pain behaviours; assay type: in vivo
Procedure: For behavioural assessment adult male C57BL/6J mice aged 6-8 weeks were used. Animals were housed in groups of 3 or 4 per cage, under 12 h light-dark cycles and had standard rodent chow and water ad libitum.
OD1 was diluted in phosphate-buffered saline/0.1% BSA (300 nM) and administered by shallow subcutaneous (intraplantar) injection to the left hind paw of mice in a volume of 40 μL under light isoflurane (3%) anesthesia. Mice were then placed individually into polyvinyl boxes (10×10×10 cm), and spontaneous pain behavior (licks and flinches) was counted by an investigator unaware of the treatments received from video recordings for 10 min post-injection.

hERG = target: T5, hERG (Homo sapiens, UniProt Q12809); experiment: hERG automated patch clamping in CHO cells; assay type: cell-based; conditions: 100 nM
T5 construct: host or cells: CHO
Procedure: CHO cells stably expressing hERG (B'SYS GmbH, Witterswil, Switzerland) were cultured in Ham's F-12 medium containing 10% v/v FBS and selection antibiotics as recommended by the manufacturer. Cells were cultured and prepared as described in Example 4.
The extracellular solution contained in mM: NaCl 145, KCl 4, MgCl2 1, CaCl2 2, HEPES 10 and glucose 10. The pH was adjusted to 7.4 and osmolarity was 305 mOsm. The intracellular solution contained in mM; KCl 120, HEPES 10, CaCl2 5, MgCl2 1.7, K2ATP 4, EGTA 10.
The pH was adjusted to 7.3 and osmolarity was 292 mOsm.
Whole-cell patch-clamp experiments were performed on a QPatch-16 automated electrophysiology platform (as described in Example 4). hERG currents were elicited by a depolarization step of +40 mV from a holding potential of −80 mV for 5 s. hERG tail currents were elicited upon partial repolarization to −50 mV for 5 s. The interval of voltages pulses was 15 s.

hNav1.8 [3] = target: T1, hNav1.8; experiment: Automated patch clamping (QPatch-16), hNav1.8; assay type: cell-based
Procedure: as §1
as §2, with “320 mOsm. […]” for “320 mOsm.”
as §3, with “The voltage of activation data was fitted to a Boltzmann sigmoidal curve using GraphPad Prism, version 6.0.” left out

hNav1.3 = target: T6, hNav1.3 (Homo sapiens, UniProt Q9NY46); experiment: Automated patch clamping (QPatch-16), hNav1.3; assay type: cell-based; conditions: mean±SEM
T6 construct: host or cells: HEK293
Procedure: as §1
as §2, with “320 mOsm. […]” for “320 mOsm.”
as §3, with “The voltage of activation data was fitted to a Boltzmann sigmoidal curve using GraphPad Prism, version 6.0.” left out

T2 sequence (Q15858 whole entry): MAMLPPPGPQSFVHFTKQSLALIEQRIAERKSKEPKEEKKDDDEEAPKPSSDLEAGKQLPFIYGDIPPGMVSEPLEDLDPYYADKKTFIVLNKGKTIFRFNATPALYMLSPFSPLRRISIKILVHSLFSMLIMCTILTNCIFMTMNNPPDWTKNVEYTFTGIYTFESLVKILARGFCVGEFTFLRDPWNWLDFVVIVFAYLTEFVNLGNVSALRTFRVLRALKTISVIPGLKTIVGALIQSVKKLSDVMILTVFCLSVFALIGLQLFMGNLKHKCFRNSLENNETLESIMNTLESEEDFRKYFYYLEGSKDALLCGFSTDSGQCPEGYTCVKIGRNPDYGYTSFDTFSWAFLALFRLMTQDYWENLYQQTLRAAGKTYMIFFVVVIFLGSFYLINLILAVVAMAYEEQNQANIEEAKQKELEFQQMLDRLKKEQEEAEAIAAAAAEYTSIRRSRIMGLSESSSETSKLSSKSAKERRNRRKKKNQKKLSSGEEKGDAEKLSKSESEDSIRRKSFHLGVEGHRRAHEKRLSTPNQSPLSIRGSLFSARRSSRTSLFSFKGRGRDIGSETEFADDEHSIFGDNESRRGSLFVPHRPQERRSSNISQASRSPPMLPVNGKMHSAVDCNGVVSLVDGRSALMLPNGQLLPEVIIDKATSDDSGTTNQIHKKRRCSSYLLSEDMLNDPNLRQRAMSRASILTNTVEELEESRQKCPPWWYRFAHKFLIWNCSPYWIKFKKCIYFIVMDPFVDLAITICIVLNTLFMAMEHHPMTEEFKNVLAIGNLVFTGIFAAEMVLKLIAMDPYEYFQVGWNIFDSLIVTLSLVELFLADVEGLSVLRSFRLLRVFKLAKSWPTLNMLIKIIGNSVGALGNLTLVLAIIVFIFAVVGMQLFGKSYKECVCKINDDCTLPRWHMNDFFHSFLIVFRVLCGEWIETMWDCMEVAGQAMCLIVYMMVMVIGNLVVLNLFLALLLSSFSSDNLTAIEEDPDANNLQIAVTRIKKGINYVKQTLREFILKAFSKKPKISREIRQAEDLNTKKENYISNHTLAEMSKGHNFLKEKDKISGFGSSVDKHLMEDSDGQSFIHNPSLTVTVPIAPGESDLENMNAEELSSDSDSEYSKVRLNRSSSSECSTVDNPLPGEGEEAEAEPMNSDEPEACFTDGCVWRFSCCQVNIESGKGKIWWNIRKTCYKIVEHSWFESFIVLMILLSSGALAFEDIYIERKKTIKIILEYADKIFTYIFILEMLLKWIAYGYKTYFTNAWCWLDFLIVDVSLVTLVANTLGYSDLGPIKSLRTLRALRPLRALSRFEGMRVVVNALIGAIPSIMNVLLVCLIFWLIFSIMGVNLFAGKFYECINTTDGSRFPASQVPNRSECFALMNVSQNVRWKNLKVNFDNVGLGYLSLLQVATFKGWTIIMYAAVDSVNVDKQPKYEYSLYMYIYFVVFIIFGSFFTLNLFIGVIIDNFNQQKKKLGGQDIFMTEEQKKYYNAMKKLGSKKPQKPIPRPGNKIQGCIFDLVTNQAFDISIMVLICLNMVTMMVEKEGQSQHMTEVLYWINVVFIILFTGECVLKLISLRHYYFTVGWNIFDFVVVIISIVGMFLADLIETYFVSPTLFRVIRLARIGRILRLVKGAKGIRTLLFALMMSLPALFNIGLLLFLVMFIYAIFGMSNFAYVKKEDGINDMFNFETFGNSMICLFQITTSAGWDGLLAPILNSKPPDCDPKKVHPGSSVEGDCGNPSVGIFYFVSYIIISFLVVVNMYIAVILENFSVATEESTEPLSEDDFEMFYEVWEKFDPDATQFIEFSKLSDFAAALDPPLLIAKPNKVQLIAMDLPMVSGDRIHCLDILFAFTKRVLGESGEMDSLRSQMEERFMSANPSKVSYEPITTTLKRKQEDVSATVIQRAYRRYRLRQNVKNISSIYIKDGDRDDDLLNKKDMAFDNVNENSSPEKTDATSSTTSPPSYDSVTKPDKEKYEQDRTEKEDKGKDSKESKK
T1 sequence (Q9Y5Y9 whole entry): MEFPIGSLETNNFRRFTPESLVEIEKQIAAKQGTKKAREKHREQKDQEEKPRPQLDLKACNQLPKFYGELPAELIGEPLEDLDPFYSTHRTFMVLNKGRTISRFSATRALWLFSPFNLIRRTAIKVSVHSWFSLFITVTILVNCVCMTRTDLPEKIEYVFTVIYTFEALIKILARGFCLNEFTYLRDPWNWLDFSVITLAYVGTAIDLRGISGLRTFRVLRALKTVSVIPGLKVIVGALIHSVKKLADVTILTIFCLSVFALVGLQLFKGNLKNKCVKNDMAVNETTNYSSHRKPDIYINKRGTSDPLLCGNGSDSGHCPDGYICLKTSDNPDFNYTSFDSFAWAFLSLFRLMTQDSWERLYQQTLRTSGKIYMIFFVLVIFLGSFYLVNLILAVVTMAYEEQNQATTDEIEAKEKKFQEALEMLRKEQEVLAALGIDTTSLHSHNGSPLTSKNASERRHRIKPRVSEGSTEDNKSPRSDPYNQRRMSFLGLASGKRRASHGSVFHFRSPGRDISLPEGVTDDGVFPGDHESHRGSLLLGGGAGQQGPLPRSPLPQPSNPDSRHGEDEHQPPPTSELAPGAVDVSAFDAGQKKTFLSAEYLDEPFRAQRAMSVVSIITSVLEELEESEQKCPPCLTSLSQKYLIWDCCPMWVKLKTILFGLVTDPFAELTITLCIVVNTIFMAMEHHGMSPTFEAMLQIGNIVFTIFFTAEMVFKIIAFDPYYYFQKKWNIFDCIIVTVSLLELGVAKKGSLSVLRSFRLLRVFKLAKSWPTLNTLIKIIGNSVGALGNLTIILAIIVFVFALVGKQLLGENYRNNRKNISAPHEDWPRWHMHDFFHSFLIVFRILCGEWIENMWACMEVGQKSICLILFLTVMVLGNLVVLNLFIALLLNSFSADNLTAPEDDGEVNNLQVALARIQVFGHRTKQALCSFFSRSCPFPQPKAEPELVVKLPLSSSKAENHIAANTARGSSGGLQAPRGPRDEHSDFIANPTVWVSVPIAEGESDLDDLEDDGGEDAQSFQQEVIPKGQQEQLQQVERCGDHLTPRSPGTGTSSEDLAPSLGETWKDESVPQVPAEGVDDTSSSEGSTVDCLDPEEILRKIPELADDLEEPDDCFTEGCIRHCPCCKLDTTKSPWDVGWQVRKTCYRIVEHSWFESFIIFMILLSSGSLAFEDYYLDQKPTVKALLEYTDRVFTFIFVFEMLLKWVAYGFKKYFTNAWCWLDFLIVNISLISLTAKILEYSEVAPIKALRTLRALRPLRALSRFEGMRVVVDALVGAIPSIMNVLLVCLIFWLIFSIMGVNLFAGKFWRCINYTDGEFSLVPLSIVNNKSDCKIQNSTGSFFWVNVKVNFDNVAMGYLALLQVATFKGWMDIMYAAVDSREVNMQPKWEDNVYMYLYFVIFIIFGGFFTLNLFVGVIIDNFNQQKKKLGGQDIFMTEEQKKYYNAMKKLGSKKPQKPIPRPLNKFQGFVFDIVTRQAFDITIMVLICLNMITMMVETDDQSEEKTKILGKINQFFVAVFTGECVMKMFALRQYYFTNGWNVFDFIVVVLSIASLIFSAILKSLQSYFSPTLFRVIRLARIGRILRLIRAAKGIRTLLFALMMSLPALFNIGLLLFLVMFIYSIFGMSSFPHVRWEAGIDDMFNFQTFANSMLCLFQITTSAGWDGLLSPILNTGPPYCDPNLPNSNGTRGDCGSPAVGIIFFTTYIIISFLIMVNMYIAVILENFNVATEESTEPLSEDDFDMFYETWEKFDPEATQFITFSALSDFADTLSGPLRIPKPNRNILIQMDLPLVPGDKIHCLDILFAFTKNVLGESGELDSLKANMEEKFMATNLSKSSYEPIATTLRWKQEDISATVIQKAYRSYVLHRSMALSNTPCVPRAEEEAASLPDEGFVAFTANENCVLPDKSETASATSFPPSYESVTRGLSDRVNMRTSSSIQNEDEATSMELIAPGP
T5 sequence (Q12809 whole entry): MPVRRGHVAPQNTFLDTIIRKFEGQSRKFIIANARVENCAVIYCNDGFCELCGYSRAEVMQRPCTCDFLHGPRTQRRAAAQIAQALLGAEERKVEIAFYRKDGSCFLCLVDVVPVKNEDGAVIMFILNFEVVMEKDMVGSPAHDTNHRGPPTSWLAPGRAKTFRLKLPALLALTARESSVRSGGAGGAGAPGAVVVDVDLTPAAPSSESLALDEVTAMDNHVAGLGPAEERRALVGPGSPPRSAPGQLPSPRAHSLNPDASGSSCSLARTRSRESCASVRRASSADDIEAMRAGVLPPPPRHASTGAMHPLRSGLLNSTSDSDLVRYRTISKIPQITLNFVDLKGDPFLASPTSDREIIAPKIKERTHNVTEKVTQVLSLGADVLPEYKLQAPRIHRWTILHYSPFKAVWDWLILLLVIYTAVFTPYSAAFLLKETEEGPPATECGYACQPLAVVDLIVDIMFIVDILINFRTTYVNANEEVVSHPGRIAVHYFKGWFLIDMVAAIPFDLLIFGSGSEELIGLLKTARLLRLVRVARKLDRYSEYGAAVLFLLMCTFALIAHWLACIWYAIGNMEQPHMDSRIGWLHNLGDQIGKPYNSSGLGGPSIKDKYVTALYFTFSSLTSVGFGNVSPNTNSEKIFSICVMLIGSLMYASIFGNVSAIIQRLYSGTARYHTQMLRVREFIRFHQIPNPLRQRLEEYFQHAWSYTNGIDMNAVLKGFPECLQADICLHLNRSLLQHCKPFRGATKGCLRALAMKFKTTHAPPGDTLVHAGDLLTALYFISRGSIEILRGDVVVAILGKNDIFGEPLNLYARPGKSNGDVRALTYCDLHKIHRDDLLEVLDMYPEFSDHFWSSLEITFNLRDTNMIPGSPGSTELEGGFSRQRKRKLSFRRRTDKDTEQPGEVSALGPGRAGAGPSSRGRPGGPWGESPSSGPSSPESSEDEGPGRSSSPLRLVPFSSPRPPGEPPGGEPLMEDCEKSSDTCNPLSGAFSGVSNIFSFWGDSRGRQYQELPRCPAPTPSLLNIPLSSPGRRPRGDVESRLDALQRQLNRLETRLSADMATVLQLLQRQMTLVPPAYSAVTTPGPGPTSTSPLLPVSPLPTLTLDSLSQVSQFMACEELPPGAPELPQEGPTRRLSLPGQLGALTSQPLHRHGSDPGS

`CSCC[C@@H]1NC(=O)[C@H](Cc2ccc(O)cc2)NC(=O)[C@H](CCCNC(=N)N)NC(=O)[C@@H](NC(=O)[C@@H](N)CC(=O)O)CSSC[C@@H]2NC(=O)[C@@H]3CSSC[C@@H](C(=O)N[C@@H](C)C(=O)N[C@@H](Cc4c[nH]c5ccccc45)C(=O)N[C@@H](CC(=O)O)C(=O)N[C@@H](Cc4ccccc4)C(=O)N[C@H](C(=O)N[C@@H](Cc4ccccc4)C(=O)N[C@H](C(=O)O)[C@@H](C)O)[C@@H](C)O)NC(=O)[C@H](Cc4ccc(O)cc4)NC(=O)[C@H](CCCCN)NC(=O)[C@H](CCSC)NC(=O)[C@H](CCCCN)NC(=O)[C@H](CCCNC(=N)N)NC(=O)[C@H](CCCCN)NC(=O)[C@H](CSSC[C@H](NC(=O)[C@H](CC(=O)O)NC(=O)CNC(=O)[C@H](Cc4ccccc4)NC1=O)C(=O)N[C@@H](CCC(=O)O)C(=O)N[C@@H](CCCCN)C(=O)N[C@@H](CC(=O)O)C(=O)N[C@@H](CCC(=O)O)C(=O)N[C@@H](CC(=O)O)C(=O)N3)NC(=O)CNC(=O)[C@H](CC(C)C)NC(=O)[C@H](Cc1cnc[nH]1)NC(=O)[C@H](CCCCN)NC2=O` [Pnc1a] was tested, and the IC50 (hNav1.8 [1]) was 26.3 µM, the “voltage dependence of activation, V50” value (hNav1.7; 0.3 nM) was −28.94±0.66 mV and the “voltage dependence of activation, V50” value (hNav1.7; 10 nM) was −4.40±2.2 mV. The “effect on the voltage dependence of fast inactivation” value (hNav1.7; 100 nM) was “no effect”, the “effect on the voltage dependence of slow inactivation” value (hNav1.7; 100 nM) was “no effect” and the “voltage dependence of activation, V50” value (hNav1.7; 100 nM) was −3.82±0.8 mV. The IC50 (hNav1.5) was 977 nM, the IC50 (hNav1.2) was 126 nM and the “spontaneous pain behaviours evoked by OD1” value ([2]; intraperitoneal 0.3, 1, 3 mg/kg, 15 min prior to OD1) was “concentration-dependently reversed; also recorded: dose-dependently reduced”. The “spontaneous pain behaviours evoked by OD1” value ([2]; intraplantar, co-injected with OD1, 100 nM, 300 nM, 1 μM) was “concentration-dependently reversed”, the “effect on hERG peak tail current” value (hERG) was “did not have a significant effect” and the “hERG peak tail current” value (hERG; control 539±13 pA) was 504±38 pA. For the same molecule, the IC50 (hNav1.8 [3]) was 47.9 µM and the “pIC50 Nav1.3” value (hNav1.3) was 6.68±0.1 M.
